# Measurements from patent publication US6586441B2, “Adenosine receptor ligands and their use in the treatment of disease” (Hoffman-La Roche Inc., priority 2000, dated 2003).
# Where a name gives a salt, the structure may show the parent alone.
# Biological target: T1, human adenosine A2A receptor (Homo sapiens, UniProt P29274)
# T1 construct: expressed in transfected cells; host or cells: CHO cells, semliki forest virus expression system; membrane preparation
# Assay: Human adenosine A2A receptor [3H]-SCH-58261 binding assay
# Conditions: not given
# Procedure: The gene encoding human adenosine A2A receptor was recombinantly introduced and expressed in chinese hamster ovary (CHO) cells using the semliki forest virus expression system. Cells were harvested, washed twice by centrifugation, homogenised and again washed by centrifugation. The final washed membrane pellet was suspended in a Tris (50 mM) buffer containing 120 mM NaCl, 5 mM KCl, 2 mM CaCl2 and 10 mM MgCl2 (pH 7.4) (buffer A). The [^3H]-SCH-58261 (Dionisotti et al., 1997, Br. J. Pharmacol. 121, 353; 1 nM) binding assay was carried out in 96-well plates in the presence of 2.5 μg of membrane protein, 0.5 mg of Ysi-poly-1-lysine SPA beads and 0.1 U adenosine deaminase in a final volume of 200 μl of buffer A. Non-specific binding was defined using xanthine amine congener (XAC; […]). Compounds were tested at 10 concentrations from 10 μM-0.3 nM. All assays were conducted in duplicate and repeated at least two times. Assay plates were incubated for 1 hour at room temperature before centrifugation and then bound ligand determined using a Packard Topcount scintillation counter. IC50 values were calculated using a non-linear curve fitting program and Ki values calculated using the Cheng-Prussoff equation.
# T1 sequence (P29274 whole entry): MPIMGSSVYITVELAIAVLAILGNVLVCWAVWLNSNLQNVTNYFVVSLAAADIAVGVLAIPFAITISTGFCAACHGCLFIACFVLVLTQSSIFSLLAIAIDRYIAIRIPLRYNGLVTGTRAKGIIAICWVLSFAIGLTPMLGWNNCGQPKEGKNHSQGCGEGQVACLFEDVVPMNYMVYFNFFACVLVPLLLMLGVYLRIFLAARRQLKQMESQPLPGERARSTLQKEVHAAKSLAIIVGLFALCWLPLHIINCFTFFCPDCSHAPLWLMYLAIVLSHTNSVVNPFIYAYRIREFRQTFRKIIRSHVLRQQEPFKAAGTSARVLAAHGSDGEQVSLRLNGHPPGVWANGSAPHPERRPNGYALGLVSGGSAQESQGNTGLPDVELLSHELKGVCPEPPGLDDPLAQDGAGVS
row,SMILES,Ki
1,"N#Cc1c(-c2ccccc2)nc(N)nc1-c1ccco1 [Example 148, 2-Amino-4-furan-2-yl-6-phenyl-pyrimidine-5-carbonitrile]",6.46 nM

# Same assay, conditions: human A2a receptor, membranes of CHO cells, [3H]-SCH-58261; read-out: pKi (affinity to the human A2a receptor) (converted)
row,SMILES,Ki
1,"CSc1nc(N)nc(-c2ccc3c(c2)OCCO3)c1C#N [Example 23, 2-Amino-4-(2,3-dihydro-benzo[1,4]dioxin-6-yl)-6-methylsulfanyl-pyrimidine-5-carbonitrile]",9.12 nM
2,"N#Cc1c(-c2ccco2)nc(N)nc1N1CCCCC1 [Example 41, 2-Amino-4-furan-2-yl-6-piperidin-1-yl-pyrimidine-5-carbonitrile]",8.51 nM
3,"N#Cc1c(OC2CCCCC2)nc(N)nc1-c1ccco1 [Example 55, 2-Amino-4-cyclohexyloxy-6-furan-2-yl-pyrimidine-5-carbonitrile]",7.41 nM
4,"CCCCSc1nc(N)nc(-c2ccco2)c1C#N [Example 60, 2-Amino-4-butylsulfanyl-6-furan-2-yl-pyrimidine-5-carbonitrile]",4.57 nM
5,"CC(C)Oc1nc(N)nc(-c2ccco2)c1C#N [Example 61, 2-Amino-4-furan-2-yl-6-isopropoxy-pyrimidine-5-carbonitrile]",6.92 nM
6,"N#Cc1c(OCc2ccccn2)nc(N)nc1-c1ccco1 [Example 76, 2-Amino-4-furan-2-yl-6-(pyridin-2-ylmethoxy)-pyrimidine-5-carbonitrile]",2.09 nM
7,"N#Cc1nc(N)nc(-c2ccco2)c1C#N [Example 94, 2-Amino-6-furan-2-yl-pyrimidine-4,5-dicarbonitrile]",9.77 nM
8,"N#Cc1c(OCc2ccccn2)nc(N)nc1-c1ccccc1 [Example 105, 2-Amino-4-phenyl-6-(pyridin-2-ylmethoxy)-pyrimidine-5-carbonitrile]",7.41 nM
9,"Nc1nc(OCc2ccccn2)c(Br)c(-c2ccco2)n1 [Example 168, 5-Bromo-4-furan-2-yl-6-(pyridin-2-ylmethoxy)-pyrimidin-2-yl-amine]",9.33 nM
10,"N#Cc1c(OCc2ccccn2)nc(N)nc1-c1cccs1 [Example 206, 2-Amino-4-(pyridin-2-ylmethoxy)-6-thiophen-2-yl-pyrimidine-5-carbonitrile]",9.55 nM
11,"N#Cc1c(OCc2cccnc2)nc(N)nc1-c1ccco1 [Example 219, 2-Amino-4-furan-2-yl-6-(pyridin-3-ylmethoxy)-pyrimidine-5-carbonitrile]",5.89 nM
12,"Nc1nc(OCCCc2ccccc2)c(Br)c(-c2ccco2)n1 [Example 230, 5-Bromo-4-furan-2-yl-6-(3-phenyl-propoxy)-pyrimidin-2-yl-amine]",1.66 nM
13,"Cc1cccc(COc2nc(N)nc(-c3ccco3)c2C#N)n1 [Example 237, 2-Amino-4-furan-2-yl-6-(6-methyl-pyridin-2-ylmethoxy)-pyrimidine-5-carbonitrile]",2.95 nM
14,"N#Cc1c(OCCc2ccccn2)nc(N)nc1-c1ccco1 [Example 241, 2-Amino-4-furan-2-yl-6-(2-pyridin-2-yl-ethoxy)-pyrimidine-5-carbonitrile]",2.19 nM
15,"Nc1nc(OCCCc2ccccc2)c(I)c(-c2ccco2)n1 [Example 267, 4-Furan-2-yl-5-iodo-6-(3-phenyl-propoxy)-pyrimidin-2-yl-amine]",4.37 nM
16,"Nc1nc(SCCc2ccccc2)c(Br)c(-c2ccco2)n1 [Example 269, 5-Bromo-4-furan-2-yl-6-phenethylsulfanyl-pyrimidin-2-yl-amine]",7.76 nM

# More lines, now with the values ahead:
row,Ki,SMILES
1,6.31 nM,"N#Cc1c(NCC2CCc3ccccc3N2)nc(N)nc1-c1ccco1 (racemic) [Example 299, (RS)-2-Amino-4-furan-2-yl-6-[(1,2,3,4-tetrahydro-quinolin-2-ylmethyl)-amino]-pyrimidine-5-carbonitrile]"
2,2.51 nM,"N#Cc1c(NCCCc2ccccc2)nc(N)nc1-c1ccco1 [Example 44, 2-Amino-4-furan-2-yl-6-(3-phenyl-propylamino)-pyrimidine-5-carbonitrile]"
3,3.8 nM,"N#Cc1c(OCc2ccccc2)nc(N)nc1-c1ccco1 [Example 47, 2-Amino-4-benzyloxy-6-furan-2-yl-pyrimidine-5-carbonitrile]"
4,3.98 nM,"N#Cc1c(SCc2ccccc2)nc(N)nc1-c1ccco1 [Example 52, 2-Amino-4-benzylsulfanyl-6-furan-2-yl-pyrimidine-5-carbonitrile]"
5,6.31 nM,"N#Cc1c(OCCc2ccccc2)nc(N)nc1-c1ccco1 [Example 53, 2-Amino-4-furan-2-yl-6-phenethyloxy-pyrimidine-5-carbonitrile]"
6,7.41 nM,"N#Cc1c(OCCCc2ccccc2)nc(N)nc1-c1ccco1 [Example 54, 2-Amino-4-furan-2-yl-6-(3-phenyl-propoxy)-pyrimidine-5-carbonitrile]"
7,6.46 nM,"N#Cc1c(NCCc2ccc(O)cc2)nc(N)nc1-c1ccco1 [Example 58, 2-Amino-4-furan-2-yl-6-[2-(4-hydroxy-phenyl)-ethylamino]-pyrimidine-5-carbonitrile]"
8,7.94 nM,"N#Cc1c(SCCCc2ccccc2)nc(N)nc1-c1ccccc1 [Example 85, 2-Amino-4-phenyl-6-(3-phenyl-propylsulfanyl)-pyrimidine-5-carbonitrile]"
9,3.98 nM,"N#Cc1c(OCCc2ccccc2)nc(N)nc1-c1ccccc1 [Example 104, 2-Amino-4-phenethyloxy-6-phenyl-pyrimidine-5-carbonitrile]"
10,2.82 nM,"COc1ccc(CCNc2nc(N)nc(-c3ccco3)c2C#N)cc1 [Example 144, 2-Amino-4-furan-2-yl-6-[2-(4-methoxy-phenyl)-ethylamino]-pyrimidine-5-carbonitrile]"
11,9.12 nM,"Nc1nc(NCCCc2ccccc2)c(Br)c(-c2ccco2)n1 [Example 208, 5-Bromo-6-furan-2-yl-N4-(3-phenyl-propyl)-pyrimidine-2,4-diamine hydrochloride]"
12,8.13 nM,"N#Cc1c(OCCNc2ccccc2)nc(N)nc1-c1ccco1 [Example 231, 2-Amino-4-furan-2-yl-6-(2-1-phenylamino-ethoxy)-pyrimidine-5-carbonitrile]"
13,2.75 nM,"N#Cc1c(SCCc2ccccc2)nc(N)nc1-c1ccco1 [Example 233, 2-Amino-4-furan-2-yl-6-phenethylsulfanyl-pyrimidine-5-carbonitrile]"
14,5.5 nM,"N#Cc1c(SCCCc2ccccc2)nc(N)nc1-c1ccco1 [Example 234, 2-Amino-4-furan-2-yl-6-(3-phenyl-propylsulfanl)-pyrimidine-5-carbonitrile]"
15,3.47 nM,"N#Cc1c(NCCOc2ccccc2)nc(N)nc1-c1ccco1 [Example 235, 2-Amino-4-furan-2-yl-6-(2-phenoxy-ethylamino)-pyrimidine-5-carbonitrile]"
16,5.5 nM,"Cc1ccc(-c2nc(N)nc(NCc3ccccc3)c2C#N)o1 [Example 245, 2-Amino-4-benzylamino-6-(5-methyl-furan-2-yl)-pyrimidine-5-carbonitrile]"
17,1.86 nM,"Cc1cccc(COc2nc(N)nc(-c3ccc(C)o3)c2C#N)n1 [Example 246, 2-Amino-4-(5-methyl-furan-2-yl)-6-(6-methyl-pyridin-2-ylmethoxy)-pyrimidine-5-carbonitrile]"
18,2.14 nM,"Cc1ccc(-c2nc(N)nc(OCc3ccccn3)c2C#N)o1 [Example 247, 2-Amino-4-(5-methyl-furan-2-yl)-6-(pyridin-2-ylmethoxy)-pyrimidine-5-carbonitrile]"
19,3.72 nM,"N#Cc1c(OCC=Cc2ccccc2)nc(N)nc1-c1ccco1 [Example 278, 2-Amino-4-furan-2-yl-6-(3-phenyl-allyloxy)-pyrimidine-5-carbonitrile]"
